Source: patent publication US20140350034A1, “Aminopyridine derivatives as plasma kallikrein inhibitors” (NOVARTIS AG, priority 2012, published 2014)

Target: T1, Human plasma kallikrein (Homo sapiens, UniProt P03952)
T1 construct: purchased Kordia (Leiden, Netherlands) batch HPKA 1303
Experiment: In vitro inhibition of plasma kallikrein (fluorogenic substrate DPro-Phe-Arg-(Rh110)-γGlu-OH)
Type: biochemical
Conditions: human plasma kallikrein 12 pM, substrate 0.5 μM, 1 hour pre-incubation at room temperature, read after 1 hour
Procedure: In Vitro Inhibition of Plasma Kallikrein
The fluorogenic substrate DPro-Phe-Arg-(Rh110)-γGlu-OH (where DPro is the amino acid d-proline, Rh110 is the fluorophore rhodamine 110 and γGlu is a […] linked to Rh110 via the gamma-carbonyl function; from Biosyntan, Berlin, Germany), being based on the chromogenic substrate described in Gallimore et al (Thromb Res 25, 293-298, 1982), was dissolved in DMSO at 5 mM and stored at −80° C. All other chemicals were of analytical grade.
Human plasma kallikrein was purchased from Kordia (Leiden, Netherlands, batch HPKA 1303) in lyophilized form.
The protein solution was reconstituted from the lyophilisate by addition of deinonized water. The resulting stock solution comprised the protein at a concentration of 0.17 mg/ml in 4 mM sodium acetate/HCl and 150 mM NaCl at pH 5.3. The stock solution was stored in aliquots at −80° C.
Enzymatic reactions were conducted in ‘assay buffer’, comprising 50 mM Hepes/NaOH at pH 7.8, 150 mM NaCl, 1 mM EDTA and 0.05% (w/v) CHAPS.
Both, enzyme and substrate were diluted in assay buffer.
All protein and peptide containing solutions were handled in siliconized tubes (Life Systems Design, Merenschwand, Switzerland). The compound solutions as well as the enzyme and the substrate solutions were transferred to 384-well plates (black Cliniplate; cat. no. 95040020 Labsystems Oy, Finland) by means of a CyBi-Well 96-channel pipettor (CyBio AG, Jena, Germany). Plate measurements were conducted by the means of a Safire2 reader (TECAN, Maennedorf, Switzerland). The Safire2 is a monochomator-based instrument and wavelengths of 485 nm and 535 nm were taken for fluorescence excitation and emission acquisition, respectively. The bandwidths were set to 10 nm in both the excitation and the emission path. The fluorescence in each well was excited by three flashes per measurement.
Determination of IC50 Values
For the determination of IC50 values, the assays were performed at room temperature in 384-well plates with a total assay volume of 25.25 μl per well.
The test compound was dissolved in 90% (v/v) DMSO/water. For the assays, 250 nL of the 90% (v/v) DMSO/water solution or compound solution were added per well, followed by the addition of 12.5 μl protease solution (protease in assay buffer). The final assay concentration of the human plasma kallikrein was nominally 12 pM, the 11 compound concentrations in the dilution series were in the range form 1 nM to 100 μM. After 1 hour of pre-incubation at room temperature, the reactions were started by the addition of 12.5 μl substrate solution (in assay buffer, final assay concentration was 0.5 μM). After the addition of the substrate solution, the final DMSO concentration in the assay was 0.9% (v/v). The effect of the compound on the enzymatic activity was obtained from the linear part of the progress curves and determined after 1 hour (t=60 min). The IC50 value was calculated from the plot of percentage of inhibition vs. inhibitor concentration by a logistics fit according to the following equation:
where y is the %-inhibition at the inhibitor concentration, x. A1 is the lowest inhibition value, i.e. 0%, and A2 the maximum inhibition value, i.e. 100%. The exponent, p, is the Hill coefficient. The curve fitting was conducted with the non-linear regression routine of the analysis software Origin 7.5SR6 (Origin Lab Corporation).

T1 sequence (P03952 391-638 limits assumed): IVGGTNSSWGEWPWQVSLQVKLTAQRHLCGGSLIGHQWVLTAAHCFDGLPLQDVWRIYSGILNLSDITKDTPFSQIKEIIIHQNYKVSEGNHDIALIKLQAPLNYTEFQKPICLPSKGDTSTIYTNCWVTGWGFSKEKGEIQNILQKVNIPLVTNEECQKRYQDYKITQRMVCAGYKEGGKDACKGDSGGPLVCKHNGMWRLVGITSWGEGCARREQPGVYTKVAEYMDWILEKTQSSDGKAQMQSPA
T1 sequence (P03952 20-390 partner limits assumed): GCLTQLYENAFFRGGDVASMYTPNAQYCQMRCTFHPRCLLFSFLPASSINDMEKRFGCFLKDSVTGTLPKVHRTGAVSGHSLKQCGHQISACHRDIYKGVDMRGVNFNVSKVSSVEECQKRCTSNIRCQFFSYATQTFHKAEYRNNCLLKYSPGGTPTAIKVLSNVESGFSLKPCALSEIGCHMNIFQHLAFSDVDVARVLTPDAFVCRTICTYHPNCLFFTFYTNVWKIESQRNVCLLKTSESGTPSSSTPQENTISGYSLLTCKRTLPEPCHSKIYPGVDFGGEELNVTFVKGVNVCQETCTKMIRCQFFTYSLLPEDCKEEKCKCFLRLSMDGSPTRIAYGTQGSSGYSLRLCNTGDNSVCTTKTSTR

Row | SMILES | IC50 [µM]
1 | CCc1cc2c(NCc3c(C)cc(N)nc3C)ncnc2s1 [Example 1, N-((6-amino-2,4-dimethylpyridin-3-yl)methyl)-6-ethylthieno[2,3-d]pyrimidin-4-amine] | 27.1
2 | Cc1cc(N)nc(C)c1CNC(=O)c1cc2ccccc2o1 [Example 2, N-((6-amino-2,4-dimethylpyridin-3-yl)methyl)benzofuran-2-carboxamide] | 4.73
3 | Cc1cc(N)nc(C)c1CNC(=O)c1ccc2ccccc2c1 [Example 6, N-((6-amino-2,4-dimethylpyridin-3-yl)methyl)-2-naphthamide] | 2.32
4 | Cc1cc(N)nc(C)c1CNc1ncc2ccn(Cc3ccc4ccccc4c3)c2n1 [Example 7, N-((6-amino-2,4-dimethylpyridin-3-yl)methyl)-7-(naphthalen-2-ylmethyl)-7H-pyrrolo[2,3-d]pyrimidin-2-amine] | 1.63

Results, then the molecule that gave them:

Row | IC50 [µM] | SMILES
5 | 5.39 | Cc1cc(N)nc(C)c1CNC(=O)c1cc2ccccc2s1 [Example 3, N-((6-amino-2,4-dimethylpyridin-3-yl)methyl)benzo[b]thiophene-2-carboxamide]
6 | 1.78 | Cc1cc(N)nc(C)c1CNc1ncnc2oc(Cc3c(Cl)cccc3Cl)nc12 [Example 4, N-((6-amino-2,4-dimethylpyridin-3-yl)methyl)-2-(2,6-dichlorobenzyl) oxazolo[5,4-d]pyrimidin-7-amine]
7 | 3.81 | Cc1cc(N)nc(C)c1CNC(=O)c1cc2ccccc2[nH]1 [Example 5, N-((6-amino-2,4-dimethylpyridin-3-yl)methyl)-1H-indole-2-carboxamide]

Same assay, conditions: the above-described assay (human plasma kallikrein)

Row | IC50 [µM] | SMILES
8 | > 30 | COc1cc2ncnc(NCc3c(C)cc(N)nc3C)c2cc1OC [N-((6-amino-2,4-dimethyl-pyridin-3-yl)-methyl)-8,9-dimethoxy-2,4-diaza-bicyclo[4.4.0]deca-1(6),2,4,7,9-pentaen-5-amine]
9 | > 30 | Cc1cc(N)nc(C)c1CNc1ncnc2c1ccn2C [N-((6-amino-2,4-dimethyl-pyridin-3-yl)-methyl)-9-methyl-2,4,9-triaza-bicyclo[4.3.0]nona-1(6),2,4,7-tetraen-5-amine]
